Experimental data taken from patent US10040788B2, “1,3,4-thiadiazole compounds and their use in treating cancer” (AstraZeneca AB, priority 2014, dated 2018).
Where two headings read alike, the source gives them in different places.

Key:
[1] = tested on: NCI-H1703 cells; assay: GLS Cell Proliferation Assay (NCI-H1703); type: cell-based, human
Text: (§1) The following assays were used to measure the effects of the compounds of the present invention: a) GLS Enzyme Potency Assay; b) GLS Cell Potency Assay; c) GLS Cell Proliferation Assay; and d) Mouse Xenograft Model. During the description of the assays, generally: • i. The following abbreviations have been used: CO2=Carbon dioxide; DMEM=Dulbecco's Modified Eagle Medium; DMSO=Dimethyl sulphoxide; EDTA=Ethylenediaminetetraacetic acid; EGTA=Ethylene glycol tetraacetic acid; FCS=Foetal calf serum; h=Hour(s); NBS=Non-binding surface; SDS=Sodium dodecyl sulphate; r.t.=room temperature; TRIS=Tris(Hydroxymethyl)aminomethane. • ii. […]
The ability of compounds to inhibit cell growth was measured using a 384 well plate NCI-H1703 cell proliferation assay. NCI-H1703 cells were grown in phenol red free RPMI1640, 10% FCS and 2 mM glutamine and seeded at a density of 750 cells per well in 40 μl of growth medium into clear-bottom 384 well assay plates (Corning product code 3712) and incubated for 24 h at 37° C., 5% CO2. […] DMSO concentration was maintained at 0.3% by back filling with DMSO solution. Plates were incubated for 5 days at 37° C., 5% CO2, Sytox Green and Saponin added to final concentration of 2 μM and 0.25% respectively and incubated for 6 h prior to analysis. Plates were read on an Acumen eX3 (TTP Labtech) using 488 nm excitation and FITC filter set (500-530 nm) for emission. IC50 values were calculated by curve fitting to max inhibition of day zero growth using GeneData software analysis.

[2] = target: GLS1 (Homo sapiens (Human), UniProt O94925); assay: GLS Enzyme Potency Assay (Glutamate Oxidase/AmplexRed coupled assay); type: biochemical; conditions: 6His tagged GLS protein (amino acids 63-669); geometric mean where repeated
Chain of GLS1 (O94925 63-669): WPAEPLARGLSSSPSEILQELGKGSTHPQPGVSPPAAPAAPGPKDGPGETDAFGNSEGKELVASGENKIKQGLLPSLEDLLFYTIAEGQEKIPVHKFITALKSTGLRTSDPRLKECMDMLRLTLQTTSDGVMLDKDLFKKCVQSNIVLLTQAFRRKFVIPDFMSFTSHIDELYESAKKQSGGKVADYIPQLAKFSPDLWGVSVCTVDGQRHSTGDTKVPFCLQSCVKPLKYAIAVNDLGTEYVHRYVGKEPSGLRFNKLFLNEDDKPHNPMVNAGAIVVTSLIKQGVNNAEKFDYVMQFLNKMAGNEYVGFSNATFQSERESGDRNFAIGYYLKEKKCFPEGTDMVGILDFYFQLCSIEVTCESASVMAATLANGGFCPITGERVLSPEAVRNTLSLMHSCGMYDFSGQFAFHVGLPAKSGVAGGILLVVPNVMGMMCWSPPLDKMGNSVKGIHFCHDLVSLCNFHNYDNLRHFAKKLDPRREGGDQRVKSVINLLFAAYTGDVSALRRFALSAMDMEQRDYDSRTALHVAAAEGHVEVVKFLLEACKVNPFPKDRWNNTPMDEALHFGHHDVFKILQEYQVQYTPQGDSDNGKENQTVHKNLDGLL
Text: The following assays were used to measure the effects of the compounds of the present invention: a) GLS Enzyme Potency Assay; b) GLS Cell Potency Assay; c) GLS Cell Proliferation Assay; and d) Mouse Xenograft Model. During the description of the assays, generally: • i. The following abbreviations have been used: CO2=Carbon dioxide; DMEM=Dulbecco's Modified Eagle Medium; DMSO=Dimethyl sulphoxide; EDTA=Ethylenediaminetetraacetic acid; EGTA=Ethylene glycol tetraacetic acid; FCS=Foetal calf serum; h=Hour(s); NBS=Non-binding surface; SDS=Sodium dodecyl sulphate; r.t.=room temperature; TRIS=Tris(Hydroxymethyl)aminomethane. • ii. IC50 values were calculated using a smart fitting model in Genedata. […] Assay a): GLS Enzyme Potency Assay
A Glutamate Oxidase/AmplexRed coupled assay was used to measure the ability of compounds to bind to and inhibit the activity of GLS1 in vitro. […] GLS1 was diluted to 2× working concentration and incubated at r.t. to allow the tetrameric/dimeric forms to reach steady state. Assay measurements were performed in buffer comprising 50 mM TRIS pH 7.8, 100 mM NaPO4, pH 7.8, 0.001% v/v Tween20. […] DMSO concentration was maintained at 2% by back filling with DMSO solution. […] 3 μL of 100 mM glutamine diluted in assay buffer was then added and the reaction incubated at r.t. for 60 minutes. […] An artefact version of the assay where the 6His tagged GLS protein and glutamine were replaced with assay buffer was also used to rule out non specific effects on the assay components.

[3] = target: cellular GLS activity (Homo sapiens (Human), UniProt O94925); assay: GLS Cell Potency Assay (PC3 coupled assay measuring cellular glutamate depletion); type: cell-based; conditions: PC3 cells, 6 h incubation, cellular glutamate depletion; geometric mean where repeated; read-out: Assay b) GLS Cell Potency Assay IC50
Chain of cellular GLS activity (O94925 55-669): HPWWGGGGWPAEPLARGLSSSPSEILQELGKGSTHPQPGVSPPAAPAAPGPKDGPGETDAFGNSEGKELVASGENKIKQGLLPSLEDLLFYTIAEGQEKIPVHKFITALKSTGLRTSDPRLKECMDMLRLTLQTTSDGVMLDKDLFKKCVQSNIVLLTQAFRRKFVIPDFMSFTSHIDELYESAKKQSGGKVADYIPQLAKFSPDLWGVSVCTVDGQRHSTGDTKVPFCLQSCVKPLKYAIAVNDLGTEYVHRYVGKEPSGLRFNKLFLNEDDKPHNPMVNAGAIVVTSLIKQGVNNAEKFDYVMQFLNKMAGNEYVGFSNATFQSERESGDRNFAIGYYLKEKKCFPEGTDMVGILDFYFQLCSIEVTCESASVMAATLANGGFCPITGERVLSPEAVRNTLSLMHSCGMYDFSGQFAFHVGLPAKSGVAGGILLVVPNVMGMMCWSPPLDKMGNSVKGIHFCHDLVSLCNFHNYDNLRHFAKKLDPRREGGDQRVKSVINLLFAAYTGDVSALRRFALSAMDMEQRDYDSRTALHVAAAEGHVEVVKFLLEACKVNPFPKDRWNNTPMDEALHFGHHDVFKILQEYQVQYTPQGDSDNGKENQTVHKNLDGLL
Text: as §1
Compounds were assessed for their potential to inhibit cellular GLS activity by use of a PC3 coupled assay measuring cellular glutamate depletion. […] DMSO concentration was maintained at 0.3% by back filling with DMSO solution. PC3 cells were grown in phenol free DMEM, 10% dialyzed FCS, 2 mM glutamine and following dispersal by trypsinisation were plated at 5.6×10^3 cells per well in 40 μl of growth medium directly into the 384 well assay plates containing dispensed compound. After incubation for 6 h at 37° C., 5% CO2 growth media was aspirated and cells lysed in 15 μl of buffer containing 10 mM TRIS pH7.4, 100 mM NaCl, 1 mM EDTA, 1 mM EGTA, 1 mM NaF, 20 mM Na4P2O7, 2 mM Na3VO4, 1% Triton X-100, 10% glycerol, 0.1% SDS and 0.5% deoxycholate.

[4] = Homo sapiens, 120 h; NCI-H1703 cells, 5 days incubation; geometric mean where repeated; read-out: Assay c) GLS Cell Proliferation Assay

## CO[C@H](C(=O)Nc1nnc(N[C@@H]2CCN(c3nccnn3)C2)s1)c1cccc(OC(F)F)c1 [19(a), (2S)-2-[3-(difluoromethoxy)phenyl]-2-methoxy-N-[5-[[(3R)-1-(1,2,4-triazin-3-yl)pyrrolidin-3-yl]amino]-1,3,4-thiadiazol-2-yl]acetamide]
[1]; NCI-H1703 cells, 5 days incubation; geometric mean where repeated; read-out: Assay c) GLS Cell Proliferation Assay
  IC50: 16.6 nM
[2]
  IC50: 85.1 nM
[3]
  IC50: 2.54 nM

## CO[C@@H](C(=O)Nc1nnc(N[C@@H]2CCN(c3nccnn3)C2)s1)c1cccc(OC(F)F)c1 [19(b), (2R)-2-[3-(difluoromethoxy)phenyl]-2-methoxy-N-[5-[[(3R)-1-(1,2,4-triazin-3-yl)pyrrolidin-3-yl]amino]-1,3,4-thiadiazol-2-yl]acetamide]
[2]
  IC50: 519 nM
[3]
  IC50: 37.4 nM

## COc1cccc([C@H](OC)C(=O)Nc2nnc(N[C@@H]3CCN(c4cncnn4)C3)s2)c1 [21(a), (2S)-2-methoxy-2-(3-methoxyphenyl)-N-[5-[[(3R)-1-(1,2,4-triazin-6-yl)pyrrolidin-3-yl]amino]-1,3,4-thiadiazol-2-yl]acetamide]
[1]; [4]
  IC50: 168 nM
[3]
  IC50: 15.7 nM

## COc1cccc([C@@H](OC)C(=O)Nc2nnc(N[C@@H]3CCN(c4cncnn4)C3)s2)c1 [21(b), (2R)-2-methoxy-2-(3-methoxyphenyl)-N-[5-[[(3R)-1-(1,2,4-triazin-6-yl)pyrrolidin-3-yl]amino]-1,3,4-thiadiazol-2-yl]acetamide]
[1]; [4]
  IC50: 1.78 nM
[2]
  IC50: 46.9 nM
[3]
  IC50: 0.35 nM

## COc1ccc([C@H](OC)C(=O)Nc2nnc(N[C@@H]3CCN(c4cccnn4)C3)s2)cc1OC [25(a), (2S)-2-(3,4-dimethoxyphenyl)-2-methoxy-N-[5-[[(3R)-1-pyridazin-3-ylpyrrolidin-3-yl]amino]-1,3,4-thiadiazol-2-yl]acetamide]
[1]; [4]
  IC50: 68.5 nM
[2]
  IC50: 35.4 nM
[3]
  IC50: 1.81 nM

## COc1ccc([C@@H](OC)C(=O)Nc2nnc(N[C@@H]3CCN(c4cccnn4)C3)s2)cc1OC [25(b), (2R)-2-(3,4-dimethoxyphenyl)-2-methoxy-N-[5-[[(3R)-1-pyridazin-3-ylpyrrolidin-3-yl]amino]-1,3,4-thiadiazol-2-yl]acetamide]
[1]; [4]
  IC50: 630 nM
[2]
  IC50: 135 nM
[3]
  IC50: 56.1 nM

## CCO[C@H](C(=O)Nc1nnc(N[C@@H]2CCN(c3nccnn3)C2)s1)c1cccc(OC)c1 [27(a), (2S)-2-ethoxy-2-(3-methoxyphenyl)-N-[5-[[(3R)-1-(1,2,4-triazin-3-yl)pyrrolidin-3-yl]amino]-1,3,4-thiadiazol-2-yl]acetamide]
[1]; [4]
  IC50: 11.7 nM
[2]
  IC50: 50.8 nM
[3]
  IC50: 2.23 nM

## CCO[C@@H](C(=O)Nc1nnc(N[C@@H]2CCN(c3nccnn3)C2)s1)c1cccc(OC)c1 [27(b), (2R)-2-ethoxy-2-(3-methoxyphenyl)-N-[5-[[(3R)-1-(1,2,4-triazin-3-yl)pyrrolidin-3-yl]amino]-1,3,4-thiadiazol-2-yl]acetamide]
[1]; [4]
  IC50: 337 nM
[2]
  IC50: 844 nM
[3]
  IC50: 19.5 nM

## CCO[C@H](C(=O)Nc1nnc(N[C@@H]2CCN(c3nccnn3)C2)s1)c1ccc(OC)cc1 [29(a), (2S)-2-ethoxy-2-(4-methoxyphenyl)-N-[5-[[(3R)-1-(1,2,4-triazin-3-yl)pyrrolidin-3-yl]amino]-1,3,4-thiadiazol-2-yl]acetamide]
[1]; [4]
  IC50: 125 nM
[2]
  IC50: 108 nM
[3]
  IC50: 5.42 nM

## CCO[C@@H](C(=O)Nc1nnc(N[C@@H]2CCN(c3nccnn3)C2)s1)c1ccc(OC)cc1 [29(b), (2R)-2-ethoxy-2-(4-methoxyphenyl)-N-[5-[[(3R)-1-(1,2,4-triazin-3-yl)pyrrolidin-3-yl]amino]-1,3,4-thiadiazol-2-yl]acetamide]
[1]; [4]
  IC50: 1960 nM
[2]
  IC50: 1370 nM
[3]
  IC50: 134 nM

## CCO[C@H](C(=O)Nc1nnc(N[C@@H]2CCN(c3cccnn3)C2)s1)c1ccc(F)c(OC)c1 [31(a), (2S)-2-ethoxy-2-(4-fluoro-3-methoxy-phenyl)-N-[5-[[(3R)-1-pyridazin-3-ylpyrrolidin-3-yl]amino]-1,3,4-thiadiazol-2-yl]acetamide]
[1]; [4]
  IC50: 16.5 nM
[2]
  IC50: 50.2 nM
[3]
  IC50: 0.559 nM

## CCO[C@@H](C(=O)Nc1nnc(N[C@@H]2CCN(c3cccnn3)C2)s1)c1ccc(F)c(OC)c1 [31(b), (2R)-2-ethoxy-2-(4-fluoro-3-methoxy-phenyl)-N-[5-[[(3R)-1-pyridazin-3-ylpyrrolidin-3-yl]amino]-1,3,4-thiadiazol-2-yl]acetamide]
[1]; [4]
  IC50: 624 nM
[2]
  IC50: 86.2 nM
[3]
  IC50: 33.3 nM

## COc1cc([C@H](OC)C(=O)Nc2nnc(N[C@@H]3CCN(c4nccnn4)C3)s2)ccc1F [32(a), (2S)-2-(4-fluoro-3-methoxy-phenyl)-2-methoxy-N-[5-[[(3R)-1-(1,2,4-triazin-3-yl)pyrrolidin-3-yl]amino]-1,3,4-thiadiazol-2-yl]acetamide]
[1]; [4]
  IC50: 2960 nM
[2]
  IC50: 2460 nM
[3]
  IC50: 300 nM

## COc1cc([C@@H](OC)C(=O)Nc2nnc(N[C@@H]3CCN(c4nccnn4)C3)s2)ccc1F [32(b), (2R)-2-(4-fluoro-3-methoxy-phenyl)-2-methoxy-N-[5-[[(3R)-1-(1,2,4-triazin-3-yl)pyrrolidin-3-yl]amino]-1,3,4-thiadiazol-2-yl]acetamide]
[1]; [4]
  IC50: 107 nM
[2]
  IC50: 70.7 nM
[3]
  IC50: 4.99 nM

## CCO[C@H](C(=O)Nc1nnc(N[C@@H]2CCN(c3nccnn3)C2)s1)c1ccc(F)c(OC)c1 [33(a), (2S)-2-ethoxy-2-(4-fluoro-3-methoxy-phenyl)-N-[5-[[(3R)-1-(1,2,4-triazin-3-yl)pyrrolidin-3-yl]amino]-1,3,4-thiadiazol-2-yl]acetamide]
[1]; [4]
  IC50: 168 nM
[2]
  IC50: 50.2 nM
[3]
  IC50: 7.13 nM

## CCO[C@@H](C(=O)Nc1nnc(N[C@@H]2CCN(c3nccnn3)C2)s1)c1ccc(F)c(OC)c1 [33(b), (2R)-2-ethoxy-2-(4-fluoro-3-methoxy-phenyl)-N-[5-[[(3R)-1-(1,2,4-triazin-3-yl)pyrrolidin-3-yl]amino]-1,3,4-thiadiazol-2-yl]acetamide]
[1]; [4]
  IC50: 5540 nM
[2]
  IC50: 1970 nM
[3]
  IC50: 690 nM

## CCO[C@H](C(=O)Nc1nnc(N[C@@H]2CCN(c3nccnn3)C2)s1)c1ccccc1 [34(a), (2S)-2-ethoxy-2-phenyl-N-[5-[[(3R)-1-(1,2,4-triazin-3-yl)pyrrolidin-3-yl]amino]-1,3,4-thiadiazol-2-yl]acetamide]
[1]; [4]
  IC50: 93.1 nM
[2]
  IC50: 88.1 nM
[3]
  IC50: 12 nM

## CCO[C@@H](C(=O)Nc1nnc(N[C@@H]2CCN(c3nccnn3)C2)s1)c1ccccc1 [34(b), (2R)-2-ethoxy-2-phenyl-N-[5-[[(3R)-1-(1,2,4-triazin-3-yl)pyrrolidin-3-yl]amino]-1,3,4-thiadiazol-2-yl]acetamide]
[1]; [4]
  IC50: 2900 nM
[2]
  IC50: 1480 nM
[3]
  IC50: 168 nM

## CCO[C@H](C(=O)Nc1nnc(N[C@@H]2CCN(c3cccnn3)C2)s1)c1ccccc1 [Example 10(a), (2S)-2-Ethoxy-2-phenyl-N-[5-[[(3R)-1-pyridazin-3-ylpyrrolidin-3-yl]amino]-1,3,4-thiadiazol-2-yl]acetamide]
[1]; [4]
  IC50: 10.9 nM
[3]
  IC50: 0.91 nM
